This is an account of results in paper PMC6498537, “Biomimetic synthesis of the natural product salviadione and its hybrids: discovery of tissue-specific anti-inflammatory agents for acute lung injury” (Chemical Science, 2019).

A short description of data set [1]: Liver microsomal stability assay, human. The data set is classed as in vitro ADME. The settings on record: human liver microsomes. Here is the method: (§1) Liver Microsomal Stability Assay. Microsomes in 0.1 M TRIS buffer pH 7.4 (final concentration 0.33 mg/mL), co-factor MgCl2 (final concentration 5 mM) and tested compound (final concentration 0.1 μM, co-solvent (0.01% DMSO) and 0.005% Bovin serum albumin) were incubated at 37°C for 10min. The reaction was started by the addition of NADPH (final concentration 1 mM). Aliquots were sampled at 0, 7, 17, 30 and 60 min, respectively, and methanol (cold in 4 °C) was added to terminate the […]
(§2) reaction. […]
A general note: Liver microsomes are a subcellular fraction often used to study metabolism.

A short description of data set [2]: Liver microsomal stability assay, rat. The settings on record: rat liver microsomes. The data set is classed as in vitro ADME. As to the method:
as §1, §2

Details of data set [3]: method as in PMID 17504222. The settings on record: literature value for 2; ref 8a; cited from earlier work.

Consider `Cc1coc2c1C(=O)C(=O)c1c-2ccc2c1CCCC2(C)C` [Compound 2, tanshinone IIA, reference compound], for which the Clint in vitro in data set [1] came out at 277.17 mL min^–1 g^–1 protein; in data set [2], 666.40 mL min^–1 g^–1 protein. The half-life at 0.1 μM in data set [1] (pH 7.4) is 7.58 min; in data set [2] (pH 7.4), 3.15 min. Besides, in data set [3], the “F (oral bioavailability)” value is given as under 3.5%. Also, the T1/2 in data set [3] was 20.4 min.

In general, half-life refers to the time in which the quantity being followed falls by half.
